Assay results from patent US8822171B1, “Methods for screening for inhibitors of tau phosphorylation by casein kinase I” (priority 2003, dated 2014).

Test system: Rat and human cortical neurons
Assay: Amyloid beta treatment of neurons; phosphotyrosine immunoprecipitation and Western blot with tau antibodies
Type: cell-based
Conditions: neurons treated with Aβ peptide for 1-10 min
Description: Rat and human cortical neurons were treated with Aβ peptide (25-35) or reverse Aβ peptide (35-25) for 1-10 min. Proteins containing phosphotyrosine were immunoprecipitated and separated by SDS-PAGE. Western blots of heat-stable extracts of neuronal cultures and immunoprecipitates were probed with antibodies to tau.

Substance: Aβ peptide (25-35) (GSNKGAIIGLM; Amyloid-beta protein 42; UniProt P05067 696-706, looked up, fragment) [amyloid β-peptide fragment 25-35 used to treat rat and human cortical neurons]
- increase in phosphotyrosine in tau relative to basal level: approximately four times the basal level
- tyrosine phosphorylation of neuronal proteins including tau: increased tyrosine phosphorylation
